Laboratory results from patent US20260284005A1, “INHIBITING MITOGEN-ACTIVATED PROTEIN (MAP)/ERK KINASE (MEK)1 AND MEK2 AND RELATED METHODS OF TREATMENT” (priority 2023, published 2026).
Read-outs that look alike come from different tables or passages of the source.

What was measured:
[1] = in vivo
[2] = system: tumor models (cell lines); test: Humanized 3D tumor growth assay (3D-TGA), tumor model panel / other cell lines; assay type: cell-based, human; conditions: read-out: IC50 in 3D-TGA Ifebemetinib, KRAS G12D, agent alone
Source text: The humanized 3D tumor growth assay (3D-TGA) is an extracellular matrix (ECM)-based, 3D tumor model that more faithfully mimics the human tumor microenvironment (TME) with the goal of improving translational fidelity to patients. See Casneuf T, et al., “Interleukin-6 is a potential therapeutic target in interleukin-6 dependent, estrogen receptor-α-positive breast cancer,” Breast Cancer (Dove Med Press). […] MEK inhibition in the 3D-TGA. […]
All cell lines were validated by IDEXX upon receipt and assay setup. See Appendix for full cell line list.
(§1) Cells were seeded in 3D cultures in a black-walled, clear-bottom, non-tissue culture treated, 384-well plate (3000 cells per well) using a 1:1 mixture of BME and a custom media and grown in a humidified incubator with 5% CO2 and 5% O2, which approximates capillary levels for each gas, at 37° C. […] Cells were assessed for cell proliferation using EdU cell proliferation staining. […] Cells were permeabilized with 30 μL of filtered 0.5% Triton X-100 in PBS for 20 minutes at room temperature. Samples were washed twice gently with PBS. Cells were stained utilizing click-iT chemistry by adding 20 μL of staining cocktail containing 2 mM copper sulfate, 8 μM sulfo-Cy5-azide, and 20 mg/ml ascorbic acid in PBS and incubated 30-60 minutes at room temperature in dark. […] Plates were imaged with the Molecular Devices Pico ImageXpress. Images were segmented and percentage of cells with EdU incorporation was quantified to calculate antiproliferative effects of the drugs.
(§2) Five (5)-ethynyl-2′-deoxyuridine (EdU) data was represented as percentage EdU positive cells quantified by high content imaging from the Molecular Devices ImageXpress® Pico.

[3] = system: NCI-H358 cells; test: 3D-TGA; assay type: cell-based, human
[4] = system: MIA PaCa-2 cells; test: 3D-TGA; assay type: cell-based, human
[5] = system: NCI-H1792 cells; test: 3D-TGA; assay type: cell-based, human
[6] = system: AsPC-1 cells; test: 3D-TGA; assay type: cell-based, human; conditions: read-out: IC50 in 3D-TGA Ifebemetinib; AsPC-1, PAN, KRAS G12D; agent alone
Description: as §1, §2

[7] = system: NCI-H2122 cells; test: 3D-TGA; assay type: cell-based, human; conditions: read-out: IC50 in 3D-TGA Ifebemetinib; NCI-H2122, LUN, KRAS G12C; agent alone
Description: as §1, §2

[8] = system: A-427 cells; test: 3D-TGA; assay type: cell-based, human; conditions: A-427, LUN, KRAS G12D
Description: as §1, §2

[9] = system: HCC-44 cells; test: 3D-TGA; assay type: cell-based, human; conditions: read-out: IC50 in 3D-TGA Ifebemetinib; HCC-44, LUN, KRAS G12C; agent alone
Description: as §1, §2

[10] = system: PANC-1 cells; test: 3D-TGA; assay type: cell-based, human; conditions: read-out: IC50 in 3D-TGA Ifebemetinib; PANC-1, PAN, KRAS G12D; agent alone
Description: as §1, §2

[11] = system: LU99 cells; test: 3D-TGA; assay type: cell-based, human; conditions: read-out: IC50 in 3D-TGA Ifebemetinib; LU99, LUN, KRAS G12C; agent alone
Description: as §1, §2

[12] = system: NCI-H2030 cells; test: 3D-TGA; assay type: cell-based, human; conditions: read-out: IC50 in 3D-TGA Ifebemetinib; NCI-H2030, LUN, KRAS G12C; agent alone
Description: as §1, §2

[13] = system: HPAF-II cells; test: 3D-TGA; assay type: cell-based, human; conditions: read-out: IC50 in 3D-TGA Ifebemetinib, PAN, KRAS G12D, agent alone
Description: as §1, §2

[14] = system: CL-40 cells; test: 3D-TGA; assay type: cell-based, human; conditions: read-out: IC50 in 3D-TGA Ifebemetinib; CL-40, COL, KRAS G12D; agent alone
Description: as §1, §2

[15] = system: Panc 10.05 cells; test: 3D-TGA; assay type: cell-based, human; conditions: read-out: IC50 in 3D-TGA Ifebemetinib; Panc 10.05, PAN, KRAS G12D; agent alone
Description: as §1, §2

[16] = system: HPAC cells; test: 3D-TGA; assay type: cell-based, human; conditions: read-out: IC50 in 3D-TGA Ifebemetinib, PAN, KRAS G12D, agent alone
Description: as §1, §2

[17] = system: ERK-induced transcription in Colon-26 tumors; test: Colon-26 tumor RNA sequencing, ERK transcriptome; assay type: in vivo, BALB/c mice; conditions: 100 mg/kg BID PO, day 18, Colon-26
[18] = human, in vivo; cited from earlier work
[19] = system: NCI-H2172 cells; test: 3D-TGA; assay type: cell-based; conditions: Homo sapiens
[20] = system: NCI-H1975 cells; test: 3D-TGA; assay type: cell-based; conditions: Homo sapiens
[21] = system: NCI-H508 cells; test: 3D-TGA; assay type: cell-based; conditions: Homo sapiens
[22] = system: LS411N cells; test: 3D-TGA; assay type: cell-based; conditions: Homo sapiens, LS-411N
[23] = system: NCI-H1650 cells; test: 3D-TGA; assay type: cell-based; conditions: Homo sapiens
[24] = system: NCI-H820 cells; test: 3D-TGA; assay type: cell-based; conditions: Homo sapiens
[25] = system: SK-CO-1 cells; test: 3D-TGA; assay type: cell-based; conditions: Homo sapiens
[26] = system: A549 cells; test: 3D-TGA; assay type: cell-based, human; conditions: Homo sapiens; A549, LUN, KRAS G12S; read-out: IC50 in 3D-TGA, CDK-4-6 inhibitor alone
Description: as §1, §2

[27] = system: HT-29 cells; test: 3D-TGA; assay type: cell-based, human; conditions: Homo sapiens; HT-29, COL, BRAF V600E; read-out: IC50 in 3D-TGA, CDK-4-6 inhibitor alone
Description: as §1, §2

[28] = system: Calu-6 cells; test: 3D-TGA; assay type: cell-based, human; conditions: Homo sapiens; Calu-6, LUN, KRAS Q61K; read-out: IC50 in 3D-TGA, CDK-4-6 inhibitor alone
Description: as §1, §2

[29] = Homo sapiens, MIA PaCa-2, PAN, KRAS G12C, read-out: IC50 in 3D-TGA, CDK-4-6 inhibitor alone
[30] = Homo sapiens, read-out: IC50 in 3D-TGA, CDK-4-6 inhibitor alone

## CC(=O)Nc1cccc(-n2c(=O)n(C3CC3)c(=O)c3c(Nc4ccc(I)cc4F)n(C)c(=O)c(C)c32)c1 [trametinib]
[1]
  half-lives per cycle: ≤ 0.25

## ifebemetinib
[2]; COLO 678, COL
  IC50: > 1000 nM
[2]; T3M-10, LUN
  IC50: > 1000 nM
[3]; read-out: IC50 in 3D-TGA Ifebemetinib, NCI-H358, LUN, KRAS G12C, agent alone
  IC50: > 1000 nM
[4]; read-out: IC50 in 3D-TGA Ifebemetinib, MIA PaCa-2, PAN, KRAS G12C, agent alone
  IC50: > 1000 nM
[5]; read-out: IC50 in 3D-TGA Ifebemetinib, NCI-H1792, LUN, KRAS G12C, agent alone
  IC50: > 1000 nM
[6]
  IC50: > 1000 nM
[7]
  IC50: > 1000 nM
[8]; read-out: IC50 in 3D-TGA Ifebemetinib, agent alone
  IC50: > 1000 nM
[9]
  IC50: > 1000 nM
[10]
  IC50: > 1000 nM
[11]
  IC50: > 1000 nM
[12]
  IC50: 500 to 1000 nM
[13]
  IC50: > 1000 nM
[14]
  IC50: > 1000 nM
[15]
  IC50: > 1000 nM
[16]
  IC50: > 1000 nM

## Cn1cnc2c(F)c(Nc3ccc(Br)cc3Cl)c(C(=O)NOCCO)cc21 [selumetinib]
[17]
  ERK transcriptome, 2 h vs 12 h post-dose: sustained MAPK pathway suppression
[18]
  half-lives: 6.2 h

## C#Cc1cccc(Nc2ncnc3cc(OCCOC)c(OCCOC)cc23)c1 [Erlotinib, erlotinib]
[19]; read-out: IC50 in 3D-TGA Erlotinib, NCI-H2172, LUN, EGFR L858R, agent alone
  IC50: 1000 nM
[20]; read-out: IC50 in 3D-TGA Erlotinib, NCI-H1975, LUN, EGFR L858R, agent alone
  IC50: 1000 nM
[21]; read-out: IC50 in 3D-TGA Erlotinib, NCI-H508, COL, BRAF G596R, agent alone
  IC50: 1000 nM
[22]; read-out: IC50 in 3D-TGA Erlotinib, LS411N, COL, BRAF V600E, agent alone
  IC50: 1000 nM
[23]; read-out: IC50 in 3D-TGA Erlotinib, NCI-H1650, LUN, EGFR E746_A750 del, agent alone
  IC50: 1000 nM
[24]; read-out: IC50 in 3D-TGA Erlotinib, NCI-H820, LUN, EGFR T790M, agent alone
  IC50: 1000 nM
[3]; Homo sapiens, read-out: IC50 in 3D-TGA Erlotinib, NCI-H358, LUN, KRAS G12C, agent alone
  IC50: 1000 nM
[4]; Homo sapiens, read-out: IC50 in 3D-TGA Erlotinib, MIA PACA-2, PAN, KRAS G12C, agent alone
  IC50: 1000 nM
[25]; read-out: IC50 in 3D-TGA Erlotinib, SK-CO-1, COL, KRAS G12V, agent alone
  IC50: 1000 nM
[5]; Homo sapiens, read-out: IC50 in 3D-TGA Erlotinib, NCI-H1792, LUN, KRAS G12C, agent alone
  IC50: 1000 nM

## O=C(c1ccc(F)c(F)c1Nc1ccc(I)cc1F)N1CC(O)([C@@H]2CCCCN2)C1 [cobimetinib]
[1]
  half-lives per cycle: ≤ 0.55

## CN(C)C/C=C/C(=O)Nc1cc2c(Nc3ccc(F)c(Cl)c3)ncnc2cc1O[C@H]1CCOC1 [Afatinib, afatinib]
[19]; NCI-H2172, read-out: IC50 in 3D-TGA Afatinib
  IC50: 1000 nM
[20]; NCI-H1975, read-out: IC50 in 3D-TGA Afatinib
  IC50: 1000 nM
[21]; NCI-H508, read-out: IC50 in 3D-TGA Afatinib
  IC50: 500 to 1000 nM
[22]; read-out: IC50 in 3D-TGA Afatinib
  IC50: 1000 nM
[23]; NCI-H1650, read-out: IC50 in 3D-TGA Afatinib
  IC50: 1000 nM
[24]; NCI-H820, read-out: IC50 in 3D-TGA Afatinib
  IC50: 1000 nM
[3]; Homo sapiens, NCI-H358, read-out: IC50 in 3D-TGA Afatinib
  IC50: 1000 nM
[4]; Homo sapiens, MIA PaCa-2, read-out: IC50 in 3D-TGA Afatinib
  IC50: 1000 nM
[25]; SK-CO-1, read-out: IC50 in 3D-TGA Afatinib
  IC50: 1000 nM
[5]; Homo sapiens, NCI-H1792, read-out: IC50 in 3D-TGA Afatinib
  IC50: 1000 nM

## CCN1CCN(Cc2ccc(Nc3ncc(F)c(-c4cc(F)c5nc(C)n(C(C)C)c5c4)n3)nc2)CC1 [Abemaciclib, abemaciclib]
[4]; [29]
  IC50: 1000 nM
[26]
  IC50: 100 to 500 nM
[27]
  IC50: 1000 nM
[8]; [30]
  IC50: 100 to 500 nM
[28]
  IC50: 1000 nM

## CC(=O)c1c(C)c2cnc(Nc3ccc(N4CCNCC4)cn3)nc2n(C2CCCC2)c1=O [Palbociclib, palbociclib]
[4]; [29]
  IC50: 1000 nM
[26]
  IC50: 100 to 500 nM
[27]
  IC50: 1000 nM
[8]; [30]
  IC50: 500 to 1000 nM
[28]
  IC50: 1000 nM

## Cn1cnc2c(F)c(Nc3ccc(Br)cc3F)c(C(=O)NOCCO)cc21 [binimetinib]
[18]
  half-lives: 3.5 h
